Data from US7576198B1, “Integrase inhibitors containing aromatic heterocycle derivatives” (Shionogi & Co., Ltd., priority 1999, dated 2009).

Each compound was assayed against HIV-1 integrase (Human immunodeficiency virus type 1 group M subtype B, UniProt P04585) (assay: HIV-1 integrase inhibition assay (microtiter plate, substrate DNA/target DNA, OD 405 nm)). Conditions: HIV-1 integrase; concentration of the compound at percent inhibition 50%; OD 405 nm.
Type: biochemical
Protocol: The inhibitory effects of the compounds of the present invention for HIV-1 integrase have been determined by the assay described below.
(1) Preparation of DNA solutions.
Substrate DNA and target DNA, which sequences were indicated below, were synthesized by Amersham Pharmacia Biotech and dissolved in KTE buffer (composition: 100 mM KCl, 1 mM EDTA, 10 mM Tris-HCl (pH 7.6)) at concentration of 2 pmol/μl and 5 pmol/μl, respectively. The DNA solutions were annealed with each complement by slowly cooling after heating.
(Substrate DNA) • 5′-Biotin-ACCCTTTTAGTCAGTGTGGAAAATCTCTAGCAGT-3′ • 3-GAAAATCAGTCACACCTTTTAGAGATCGTCA-5′
5′-TGACCAAGGGCTAATTCACT-Dig-3′
3′-Dig-ACTGGTTCCCGATTAAGTGA-5′
(2) Calculations of the percent inhibitions (the IC50 values of test compounds)
Streptavidin, obtained from Vector Laboratories, was dissolved in 0.1 M carbonate buffer (composition: 90 mM Na2CO3, 10 mM NaHCO3) at concentration of 40 μg/ml. After coating each well of microtiter plates (obtained from NUNC) with 50 μl of the above solution at 4° C. over night, each well was washed twice with PBS (composition: […], 0.27 mM KCl, 0.43 mM Na2HPO4, 0.14 mM KH2PO4) and blocked with 300 μl of 1% skim milk in PBS for 30 min. Additionally, each well was washed twice with PBS and added 50 μl of substrate DNA solution (2 pmol/μl). The microtiter plates were kept at room temperature for 30 min. Then, each well was washed twice with PBS and once with H2O.
Subsequently, in the each well prepared above were added 45 μl of the reaction buffer prepared from 12 μl of the buffer (composition: 150 mM MOPS (pH 7.2), 75 mM MnCl2, 50 mM 2-mercaptoethanol, 25% glycerol, 500 μg/ml bovine serum albumin-fraction V), 1 μl of target DNA (5 pmol/μl), and 32 μl of the distilled water. Additionally, 6 μl of either a test compound in DMSO or DMSO for positive control (PC) was mixed with the above reaction buffer, then 9 μl of an integrase solution (30 pmol) was added and mixed well. In the well of negative control (NC) was added 9 μl of the integrase dilution buffer (composition: 20 mM MOPS (pH7.2), 400 mM potassium glutamate, 1 mM EDTA, 0.1% NP-40, 20% glycerol, 1 mM DTT, 4M urea).
The microtiter plates were incubated at 30° C. for 1 hour. The reaction solution was removed and each well was washed twice with PBS. Subsequently, each well of the microtiter plates was filled with 100 μl of anti-digoxigenin antibody labeled with alkaline phosphatase (Sheep Fab fragment: obtained from Boehringer) and incubated at 30° C. for 1 hour. Then, each well was washed twice with 0.05% Tween20 in PBS and once with PBS. Next, 150 μl of the Alkaline phosphatase reaction buffer (composition: 10 mM p-Nitrophenylphosphate (obtained from Vector Laboratories), 5 mM MgCl2, 100 mM NaCl, 100 mM Tris-HCl (pH 9.5)) was added in each well. The microtiter plates were incubated at 30° C. for 2 hours and the reaction was terminated by the addition of 50 μl of 1 N NaOH solution. The optical density (OD) at 405 nm of each well was measured and the percent inhibition was determined by the following expression. The percent inhibition (%)=100[1−{(C abs.−NC abs.)/(PC abs.−NC abs.)}] • C abs.; the OD of the well of the compounds • NC abs. the OD of the negative control (NC) • PC abs.: the OD of the positive control (PC)
The following Compounds (X-1 to 3) were used in order to compare an activity of the present compound with that of the compounds (X-1 to 3). Compound No. in the Table 1 is the same as compound No. of the above example.

SMILES | IC50 [µg/mL]
O=C(O)C(=O)c1c(F)ccc(COc2ccc(C=C(O)C(=O)O)nc2)c1F [Compound I-17, 3-[5-(3-Carboxyoxalyl-2,4-difluorobenzyloxy)-pyridin-2-yl]-2-hydroxy acrylic acid] | 3.4

Same assay, conditions: HIV-1 integrase; concentration of the compound at percent inhibition 50%; OD 405 nm; read-out: IC50 (μg/ml) (converted)

SMILES | IC50 [µM]
CCOC(=O)C(O)=Cc1ccc(OCc2ccccc2)cn1 [Compound I-2, 3-(5-Benzyloxypyridin-2-yl)-2-hydroxy acrylic acid ethyl ester] | 1.77
O=C(O)C(O)=Cc1ccc(OCc2ccccc2)cn1 [Compound I-3, 3-(5-Benzyloxypyridin-2-yl)-2-hydroxy acrylic acid] | 1.14
O=C(O)/C(O)=C/c1ccc(OCC2CCCCC2)cn1 [Compound I-7, 3-[5-(Cyclohexylmethoxy)pyridin-2-yl]-2-hydroxy acrylic acid] | 4.69
CC(C)CCOc1ccc(/C=C(\O)C(=O)O)nc1 [Compound I-9, 3-(5-Isopentoxypyridin-2-yl)-2-hydroxy acrylic acid] | 11.5
OC(=Cc1ccc(OCc2ccccc2)cn1)c1nc[nH]n1 [Compound I-14, 2-(5-Benzyloxypyridin-2-yl)-1-(1H-[1,2,4]triazol-3-yl) ethenol] | 3.23
OC(=Cc1ccc(OCc2ccccc2)cn1)c1nccs1 [Compound I-15, 2-(5-Benzyloxypyridin-2-yl)-1-thiazol-2-yl ethenol] | 10.2
CCOC(=O)C(O)=Cc1cc(CCc2ccccc2)ncn1 [Compound I-24, 3-[6-(2-Phenylethyl)pyrimidin-4-yl)-2-hydroxy acrylic acid ethyl ester] | 1.01
O=C(O)C(O)=Cc1cc(CCc2ccccc2)ncn1 [Compound I-25, 3-[6-(2-Phenylethyl)pyrimidin-4-yl)-2-hydroxy acrylic acid] | 0.481
O=C(O)/C(O)=C/c1cnc(CCc2ccccc2)cn1 [Compound I-27, 3-[5-(2-Phenylethyl)pyradin-2-yl]-2-hydroxy acrylic acid] | 2.52
O=C(O)/C(O)=C/c1nnc(CCc2ccccc2)s1 [Compound I-35, 3-[5-(2-Phenylethyl)[1,3,4]thiadiazol-2-yl)-2-hydroxy acrylic acid] | 1.59
CCOC(=O)C(O)=Cc1ccc(OCc2ccc(F)cc2F)cn1 [Compound I-46, 3-[5-(2,4-Difluorobenzyloxy)pyridin-2-yl]-2-hydroxy acrylic acid ethyl ester] | 1.64
O=C(O)C(O)=Cc1ccc(OCc2ccc(F)cc2F)cn1 [Compound I-47, 3-[5-(2,4-Difluorobenzyloxy)pyridin-2-yl]-2-hydroxy acrylic acid] | 1.63
O=C(O)/C(O)=C/c1ccc(OCc2ccc(C(F)(F)F)cc2)cn1 [Compound I-49, 3-[5-(4-Trifluoromethylbenzyloxy)pyridin-2-yl]-2-hydroxy acrylic acid] | 16.5
COc1cc(/C=C(\O)C(=O)O)ccc1OCc1ccccc1 [Compound X-1, reference compound] | > 333
O=C(O)/C(O)=C/c1ccc2ccccc2c1 [Compound X-2, reference compound] | > 467
O=C(O)/C(O)=C/c1ccc(OCc2ccccc2)cc1 [Compound X-3, reference compound] | > 370

Same assay, conditions: besides the compounds of the IC50 table

SMILES | inhibitory effect for HIV-1 integrase, stated in words (compound having high activity)
Cc1cc(/C(O)=C/c2cc(CCc3ccccc3)ncn2)no1 [Compound I-103] | high activity
O/C(=C\c1cc(CCc2ccc(F)cc2)ncn1)c1ncccn1 [Compound I-109] | high activity
O/C(=C\c1cc(CCc2ccccc2)ncn1)c1ncccn1 [Compound I-110] | high activity
O/C(=C\c1cc(CCc2ccccc2)ncn1)c1ccccn1 [Compound I-111] | high activity
O=C(O)c1ccc(/C(O)=C/c2cc(CCc3ccccc3)ncn2)nc1 [Compound I-114] | high activity
O=C(O)/C(O)=C/c1cc(C(F)Cc2ccccc2)ncn1 (stereo not shown) [Compound I-115] | high activity
O=C(O)/C(O)=C/c1ncc(CCc2ccccc2)o1 [Compound I-117] | high activity
O=C(O)/C(O)=C/c1ncc(CCc2ccccc2)s1 [Compound I-119] | high activity
